Results from patent US12018011B2, “Macrocyclic compounds and compositions, and methods of preparing and using the same” (Kura Oncology, Inc., priority 2021, dated 2024).

Key:
[1] = target: T1, Recombinant human farnesyl transferase (FTase) (Homo sapiens, UniProt P49356); test: FTase fluorescence assay (farnesylation of dansyl-GCVLS peptide); assay type: biochemical; conditions: recombinant human FTase 2.5 nM, Dansyl-GCVLS 85 nM, FPP 30 nM, 30° C., 50 minutes
T1 construct: purchased Crelux (Martinsried, Germany)

[2] = target: T2, geranylgeranyl transferase type-1 (GGTase) (Homo sapiens, UniProt P53609); test: GGTase fluorescence assay (dansyl-GCVLL peptide, GGPP); assay type: biochemical; conditions: GGTase 25 nM, Dansyl-GCVLL 10 μM, GGPP 10 μM, 30° C., 120 minutes
T2 construct: purchased Crelux (Martinsried, Germany)
Excerpt: (§1) T24/83 cell line was purchased from the European Collection of Authenticated Cell Cultures (Salisbury, UK). Recombinant human farnesyl transferase (FTase) and geranylgeranyl transferase type-1 (GGTase) were obtained from Crelux (Martinsried, Germany). Dansyl labelled GCVLS peptide was purchased from Bachem (Torrance, CA), and Dansyl labelled GCVLL peptide was purchased from Bio Synthesis (Lewisville, TX). Farnesyl Pyrophosphate (FPP) and Geranylgeranyl pyrophosphate (GGPP) were purchased from Cayman (Ann Arbor, MI).
Geranylgeranyl transferase (GGTase) is a closely related enzyme to farnesyl transferase (FTase). The two enzymes share a common regulatory chain but have distinct individual enzymatic domains. GGTase catalyses the addition of an alternative prenylated side chain to some of the same proteins that may also be farnesylated. Thus, selective inhibitory activity against FTase relative to GGTase is a critical characteristic for FTase inhibitors.
The IC50 value of the compounds disclosed herein as inhibitors of Ftase and/or GGTase, was determined by measuring the concentration (provided in nM) necessary to achieve inhibition of enzyme activity by 50% (IC50). […] Compounds having a low IC50 value against FTase, for example an IC50 (FTase)<100 nM, such as an IC50 (FTase)<10 nM, are preferred. Compounds having a low IC50 value against FTase and a high IC50 value against GGTase, for example an IC50 (FTase)<100 nM, such as an IC50 (FTase)<10 nM, and an IC50 (GGTase)>100 nM, are potent and selective inhibitors of FTase, and are particularly preferred.
The inhibition activities of the compounds disclosed herein against Ftase and GGTase were measured in the respective fluorescence assays as follows:
For the GGTase assay, GGTase (25 nM), Dansyl labelled GCVLL peptide (10 μM), GGPP (10 μM) and inhibitor were mixed in assay buffer (50 mM Tris, pH 7.5, 10 mM magnesium chloride, 10 μM zinc chloride, 0.08% CHAPS, 5 mM dithiothreitol) and incubated in a total volume of 20 μL at 30° C. for 120 minutes.
For both the FTase assay and GGTase assay, fluorescence intensity was detected (excitation at 340 nm and emission at 486 nm) using EnVision (PerkinElmer; Waltham, MA), IC50 determinations were performed using a sigmoidal dose-response model with Xlfit software (IDBS, Inc.; Boston, MA), and tipifarnib was used as a positive control. All the assay plates for each assay passed the QC criteria (S/B, Z factor).

T24/83 cells = test: T24/83 cell proliferation assay (CellTiter-Glo); assay type: cell-based; conditions: Homo sapiens, 96 h, 4 days
Excerpt: as §1
Mutant oncogenic HRAS was originally identified in a human bladder carcinoma cell line called T24. T24/83 is a subline of T24 established more recently that has more favorable growth characteristics for in vitro assays. Thus, T24/83 is a well-characterized mutant HRAS-dependent cell line that is an ideal model for quantifying the HRAS-dependent antitumor activity of farnesyltransferase inhibitors.
T24/83 cells were inoculated into 384 well plates at 100 cells/well, and grown in the presence of inhibitor, 0.7% DMSO as a negative control, or 100 μM tipifarnib as a positive control, at 37° C. for 4 days. Cell viability was assessed using the CellTiter-Glo Kit (CTG) (Promega; Madison, WI). Luminescence was recorded using EnVision microplate reader (PerkinElmer; Waltham, MA). In this assay, tipifarmib was used as a positive control. All the assay plates passed the QC criteria (S/B, Z-factor).

[3] = Metabolic stability in human liver microsomes; assay type: in vitro ADME; conditions: human liver microsomes 0.5 mg protein/mL, test compound 1 μM, 37° C.; read-out: T1/2 in HLM
Method: (§2) The metabolic stability of the compounds disclosed herein was determined by measuring half-life (T1/2) of the compounds in the presence of mouse liver microsomes (MLM) or human liver microsomes (BILM).
(§3) Intermediate solution: 5 μL of compound and control stock solution (10 mM in dimethyl sulfoxide (DMSO)) were diluted with 495 μL of acetonitrile (ACN) (intermediate solution concentration: 100 μM, 99% ACN).
(§4) Working solution: 50 μL of compound and control intermediate solution (100 μM) were diluted with 450 μL of 100 mM potassium phosphate buffer (working solution concentration: 10 μM, 9.9% ACN).
(§5) Controls used in this assay: Testosterone, Diclofenac, and Propafenone.
(§6) Preparation Procedure: The appropriate amount of NADPH powder was weighed and diluted into a 10 mM MgCl2 solution (working solution concentration: 10 unit/mL; final concentration in reaction system: 1 unit/mL).
(§7) The appropriate concentrations of microsome working solutions were prepared in 100 mM potassium phosphate buffer.
(§8) Cold (4° C.) acetonitrile (CAN) containing 200 ng/mL tolbutamide and 200 ng/mL labetalol as internal standards (IS) was used as the stop solution.
(§9) Using an Apricot automation workstation, 10 μL/well of compound working solution were added to all 96-well reaction plates except the blank (T0, T5, T10, T20, T30, T60, and NCF60).
(§10) An Apricot automation workstation was used to add 80 μL/well of microsome solution to all reaction plates (Blank, T0, T5, T10, T20, T30, T60, and NCF60).
(§11) All reaction plates containing mixtures of compound and microsomes were pre-incubated at 37° C. for 10 minutes.
(§12) An Apricot automation workstation was used to add 10 μL/well of 100 mM potassium phosphate buffer to reaction plate NCF60.
(§13) Reaction plate NCF60 was incubated at 37° C. for 60 minutes.
(§14) After pre-incubation, an Apricot automation workstation was used to add 10 μL/well of NADPH regenerating system to every reaction plate except NCF60 (Blank, T0, T5, T10, T20, T30, and T60) to start the reaction. Final concentration of each component in incubation medium: Microsome (0.5 mg protein/mL); Test Compound (1 μM); Control Compound (1 μM); Acetonitrile (0.99%); DMSO (0.01%).
(§15) The reaction plates were incubated at 37° C. for 0 minute (T0, stop solution was added prior to microsome and NADPH solutions), 5 minutes (T5), 10 minutes (T10), 20 minutes (T20), 30 minutes (T30), 60 minutes (T60).
(§16) An Apricot automation workstation was used to add 300 μL/well of stop solution to each reaction plate at its appropriate end time point to terminate the reaction.
(§17) Each plate was sealed and shaken for 10 minutes.
(§18) After shaking, each plate was centrifuged at 4000 rpm and 4° C. for 20 minutes.
(§19) During centrifugation, an Apricot automation workstation was used to add 300 µL/well of HPLC grade water to eight new 96-well plates.
(§20) After centrifugation, an Apricot automation workstation was used to transfer 100 μL of supernatant from each reaction plate to its corresponding bioanaylsis plate.
(§21) Each bioanalysis plate was sealed and shaken for 10 minutes prior to LC-MS/MS analysis.
(§22) The equation of first order kinetics was used to calculate T1/2 and CLint(mic) (μL/min/mg).

[4] = Metabolic stability in mouse liver microsomes; assay type: in vitro ADME; conditions: CD-1 mouse liver microsomes 0.5 mg protein/mL, test compound 1 μM, 37° C.; read-out: T1/2 in MLM
Method: as §2, §3, §4, §5, §6, §7, §8, §9, §10, §11, §12, §13, §14, §15, §16, §17, §18, §19, §20, §21, §22

For `Cn1cncc1[C@@]1(O)c2ccc(C#N)c(c2)CCc2cccc(c2)-c2cc(=O)n(C)c3ccc1cc23` [(R)-6, (R)-3-hydroxy-2^1-methyl-3-(1-methyl-1H-imidazol-5-yl)-2^2-oxo-2^1,2^2-dihydro-2(4,6)-quinolina-1,4(1,3)-dibenzenacyclohexaphane-4^4-carbonitrile], the IC50 [1] was ≤ 10 nM, the IC50 [2] was > 1000 nM and the IC50 (T24/83 cells) was ≤ 50 nM. The half-life at 1 μM [3] was < 30 min and the half-life at 1 μM [4] was 5 to 15 min.

In the case of `Cn1cncc1[C@@]1(N)c2ccc(C#N)c(c2)CCc2cccc(c2)-c2cc(=O)n(C)c3ccc1cc23` [(R)-7, (R)-3-amino-2^1-methyl-3-(1-methyl-1H-imidazol-5-yl)-2^2-oxo-2^1,2^2-dihydro-2(4,6)-quinolina-1,4(1,3)-dibenzenacyclohexaphane-4^4-carbonitrile], the IC50 [1] is reported as ≤ 10 nM, the IC50 [2] is reported as > 1000 nM and the IC50 (T24/83 cells) is reported as ≤ 50 nM. The half-life at 1 μM [3] was < 30 min and the half-life at 1 μM [4] was 5 to 15 min.

For `[2H]C([2H])([2H])n1c(=O)cc2c3cc(ccc31)[C@@](N)(c1cncn1C)c1ccc(C#N)c(c1)CCc1cccc-2c1` [(R)-8, (R)-3-amino-2^1-(methyl-d3)-3-(1-methyl-1H-imidazol-5-yl)-2^2-oxo-2^1,2^2-dihydro-2(4,6)-quinolina-1,4(1,3)-dibenzenacyclohexaphane-4^4-carbonitrile], the IC50 [1] was ≤ 10 nM, the IC50 [2] was > 1000 nM and the IC50 (T24/83 cells) was ≤ 50 nM. The half-life at 1 μM [3] was < 30 min and the half-life at 1 μM [4] was 5 to 15 min.

With `Cn1cncc1[C@@]1(O)c2ccc(Cl)c(c2)CCc2cccc(c2)-c2cc(=O)n(C)c3ccc1cc23` [(S)-3, (S)-4^4-chloro-3-hydroxy-2^1-methyl-3-(1-methyl-1H-imidazol-5-yl)-2^1,2^2-dihydro-2(4,6)-quinolina-1,4(1,3)-dibenzenacyclohexaphan-2^2-one] the IC50 [1] was ≤ 10 nM, the IC50 [2] was > 1000 nM and the IC50 (T24/83 cells) was ≤ 50 nM. For the same compound, the half-life at 1 μM [3] was < 30 min and the half-life at 1 μM [4] was 5 to 15 min.

For `Cn1cncc1[C@@]1(N)c2ccc(Cl)c(c2)CCc2cccc(c2)-c2cc(=O)n(C)c3ccc1cc23` [(S)-4, (S)-3-amino-4^4-chloro-2^1-methyl-3-(1-methyl-1H-imidazol-5-yl)-2^1,2^2-dihydro-2(4,6)-quinolina-1,4(1,3)-dibenzenacyclohexaphan-2^2-one], the IC50 [1] was ≤ 10 nM, the IC50 [2] was > 1000 nM and the IC50 (T24/83 cells) was ≤ 50 nM. For the same compound, the half-life at 1 μM [3] was < 30 min and the half-life at 1 μM [4] was < 5 min.

For `Cn1cncc1[C@@]1(O)c2ccc(Cl)c(c2)OCc2cccc(c2)-c2cc(=O)n(C)c3ccc1cc23` [(S)-14, (S)-4^4-chloro-3-hydroxy-2^1-methyl-3-(1-methyl-1H-imidazol-5-yl)-2^1,2^2-dihydro-5-oxa-2(4,6)-quinolina-1,4(1,3)-dibenzenacyclohexaphan-2^2-one], the IC50 [1] was ≤ 10 nM, the IC50 [2] was > 1000 nM and the IC50 (T24/83 cells) was 50 to 500 nM. For the same compound, the half-life at 1 μM [3] was 30 to 100 min and the half-life at 1 μM [4] was < 5 min.

For `Cn1cncc1[C@@]1(N)c2ccc(Cl)c(c2)OCc2cccc(c2)-c2cc(=O)n(C)c3ccc1cc23` [(S)-15, (S)-3-amino-4^4-chloro-2^1-methyl-3-(1-methyl-1H-imidazol-5-yl)-2^1,2^2-dihydro-5-oxa-2(4,6)-quinolina-1,4(1,3)-dibenzenacyclohexaphan-2^2-one], the IC50 [1] was ≤ 10 nM, the IC50 [2] was > 1000 nM and the IC50 (T24/83 cells) was 50 to 500 nM. The half-life at 1 μM [3] was 30 to 100 min and the half-life at 1 μM [4] was < 5 min.

For `Cn1cncc1[C@@]1(O)c2ccc(C#N)c(c2)OCc2cccc(c2)-c2cc(=O)n(C)c3ccc1cc23` [(S)-18, (S)-3-hydroxy-2^1-methyl-3-(1-methyl-1H-imidazol-5-yl)-2^2-oxo-2^1,2^2-dihydro-5-oxa-2(4,6)-quinolina-1,4(1,3)-dibenzenacyclohexaphane-4^4-carbonitrile], the IC50 [1] was ≤ 10 nM, the IC50 [2] was > 1000 nM and the IC50 (T24/83 cells) was ≤ 50 nM. The half-life at 1 μM [3] was 30 to 100 min and the half-life at 1 μM [4] was 5 to 15 min.

For `[2H]C([2H])([2H])n1c(=O)cc2c3cc(ccc31)[C@@](N)(c1cncn1C)c1ccc(C#N)c(c1)OCc1cccc-2c1` [(S)-20, (S)-3-amino-2^1-(methyl-d3)-3-(1-methyl-1H-imidazol-5-yl)-2^2-oxo-2^1,2^2-dihydro-5-oxa-2(4,6)-quinolina-1,4(1,3)-dibenzenacyclohexaphane-4^4-carbonitrile], the IC50 [1] was ≤ 10 nM, the IC50 [2] was > 1000 nM and the IC50 (T24/83 cells) was ≤ 50 nM. For the same compound, the half-life at 1 μM [3] was > 100 min and the half-life at 1 μM [4] was > 15 min.

In the case of `[2H]C([2H])([2H])n1c(=O)cc2c3cc(ccc31)[C@@](O)(c1cncn1C)c1ccc(C#N)c(c1)COc1cccc-2c1` [(S)-55, (S)-3-hydroxy-2^1-(methyl-d3)-3-(1-methyl-1H-imidazol-5-yl)-2^2-oxo-2^1,2^2-dihydro-6-oxa-2(4,6)-quinolina-1,4(1,3)-dibenzenacyclohexaphane-4^4-carbonitrile], the IC50 [1] is reported as ≤ 10 nM, the IC50 [2] is reported as > 1000 nM and the IC50 (T24/83 cells) is reported as ≤ 50 nM.

With `Cn1cncc1[C@@]1(N)c2ccc(C#N)c(c2)COc2cccc(c2)-c2cc(=O)n(C3CC3)c3ccc1cc23` [(S)-57, (S)-3-amino-2^1-cyclopropyl-3-(1-methyl-1H-imidazol-5-yl)-2^2-oxo-2^1,2^2-dihydro-6-oxa-2(4,6)-quinolina-1,4(1,3)-dibenzenacyclohexaphane-4^4-carbonitrile] the IC50 [1] was ≤ 10 nM, the IC50 [2] was > 1000 nM and the IC50 (T24/83 cells) was ≤ 50 nM.
